# What was measured:
# rice = assay: Test C flooded paddy test; type: in vivo, Oryza sativa; settings: Flood, scale 0 to 100 (0 no effect, 100 complete control), 13 to 15 days
# Method in brief: (§1)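 In-water treatment: compound dosed into 3 cm flood over soil, water level unchanged throughout. Controls run alongside; visual assessment at day 13–15.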
# sedge, umbrella = assay: Test C flooded paddy test; type: in vivo, Cyperus difformis; settings: Flood, scale 0 to 100 (0 no effect, 100 complete control), 13 to 15 days
# Method in brief: as §1
# velvetleaf = assay: Test E preemergence; type: in vivo, Abutilon theophrasti; settings: for Velvetleaf plant response rating: scale 0 to 100 (0 no effect, 100 complete control)
# Method in brief: (§2)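 Test chemicals formulated in a non-phytotoxic solvent mixture containing a surfactant were applied preemergence to seeds in silt loam soil or postemergence to plants at the 1- to 4-leaf stage in potting mix. After 14 to 21 days in a greenhouse, injury was visually rated against controls on a 0-100 scale (0 = no effect, 100 = complete control).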
# wild poinsettia = assay: Test E preemergence; type: in vivo, Euphorbia heterophylla; settings: for Poinsettia, Wild plant response rating: scale 0 to 100 (0 no effect, 100 complete control)
# Method in brief: as §2
# Brazilian crabgrass = assay: Test E preemergence; type: in vivo, Digitaria horizontalis; settings: for Crabgrass, Brazil plant response rating: scale 0 to 100 (0 no effect, 100 complete control)
# Method in brief: as §2
# johnsongrass = assay: Test E preemergence; type: in vivo, Sorghum halepense; settings: for Johnsongrass plant response rating: scale 0 to 100 (0 no effect, 100 complete control)
# Method in brief: as §2
# arrowleaf sida = assay: Test E preemergence; type: in vivo, Sida rhombifolia; settings: preemergence; for Arrowleaf Sida plant response rating: scale 0 to 100 (0 no effect, 100 complete control)
# Method in brief: as §2
# dayflower = assay: Test E preemergence; type: in vivo, Commelina virginica; settings: for Dayflower, VA plant response rating: scale 0 to 100 (0 no effect, 100 complete control)
# Method in brief: as §2
# field bindweed = assay: Test E preemergence; type: in vivo, Convolvulus arvensis; settings: for Field Bindweed plant response rating: scale 0 to 100 (0 no effect, 100 complete control)
# Method in brief: as §2
# nightshade = assay: Test E preemergence; type: in vivo, Solanum ptycanthum; settings: for Nightshade plant response rating: scale 0 to 100 (0 no effect, 100 complete control)
# Method in brief: as §2
# kochia = assay: Test E preemergence; type: in vivo, Kochia scoparia; settings: for Kochia plant response rating: scale 0 to 100 (0 no effect, 100 complete control)
# Method in brief: as §2
# hairy beggarticks = assay: Test E preemergence; type: in vivo, Bidens pilosa; settings: preemergence; for Beggarticks plant response rating: scale 0 to 100 (0 no effect, 100 complete control)
# Method in brief: as §2
# [1] = 125 g ai/ha, scale 0 to 100, 0 no effect, 100 complete control
# [2] = 8 g ai/ha, scale 0 to 100, 0 is no effect, 100 is complete control
compound,measurement,setting,value
FC(F)(F)c1cnn(-c2c(Cl)cccc2Oc2ncc(Cl)cn2)c1 [Compound 167],"Plant response rating, Rice",rice; 31 g ai/ha,0
same,"Plant response rating, Rice",rice; 62 g ai/ha,0
same,"Plant response rating, Rice",rice; 125 g ai/ha,0
same,"Plant response rating, Rice",rice; 250 g ai/ha,0
same,"Plant response rating, Sedge, Umbrella","sedge, umbrella; 31 g ai/ha",60
same,"Plant response rating, Sedge, Umbrella","sedge, umbrella; 62 g ai/ha",70
same,"Plant response rating, Sedge, Umbrella","sedge, umbrella; 125 g ai/ha",80
same,"Plant response rating, Sedge, Umbrella","sedge, umbrella; 250 g ai/ha",85
same,Velvetleaf plant response rating,velvetleaf; 31 g ai/ha,20
same,Velvetleaf plant response rating,velvetleaf; 62 g ai/ha,65
same,"Plant response rating, Velvetleaf",velvetleaf; [1],100
same,"Poinsettia, Wild plant response rating",wild poinsettia; 31 g ai/ha,0
same,"Poinsettia, Wild plant response rating",wild poinsettia; 62 g ai/ha,20
same,"Plant response rating, Poinsettia, Wild",wild poinsettia; [1],25
same,"Crabgrass, Brazil plant response rating",Brazilian crabgrass; 16 g ai/ha,0
same,"Crabgrass, Brazil plant response rating",Brazilian crabgrass; 31 g ai/ha,20
same,"Crabgrass, Brazil plant response rating",Brazilian crabgrass; 62 g ai/ha,75
same,"Plant response rating, Crabgrass, Brazil",Brazilian crabgrass; [1],100
same,Johnsongrass plant response rating,johnsongrass; 31 g ai/ha,10
same,Johnsongrass plant response rating,johnsongrass; 62 g ai/ha,30
same,"Plant response rating, Johnsongrass",johnsongrass; [1],70
same,Arrowleaf Sida plant response rating,arrowleaf sida; 16 g ai/ha,65
same,Arrowleaf Sida plant response rating,arrowleaf sida; 31 g ai/ha,65
same,Arrowleaf Sida plant response rating,arrowleaf sida; 62 g ai/ha,100
same,"Plant response rating, Arrowleaf Sida",arrowleaf sida; [1],100
same,"Dayflower, VA plant response rating",dayflower; 16 g ai/ha,0
same,"Dayflower, VA plant response rating",dayflower; 31 g ai/ha,5
same,"Dayflower, VA plant response rating",dayflower; 62 g ai/ha,65
same,"Plant response rating, Dayflower, VA",dayflower; [1],100
same,Field Bindweed plant response rating,field bindweed; 16 g ai/ha,0
same,Field Bindweed plant response rating,field bindweed; 31 g ai/ha,0
same,Field Bindweed plant response rating,field bindweed; 62 g ai/ha,0
same,"Plant response rating, Field Bindweed",field bindweed; [1],10
same,Nightshade plant response rating,nightshade; 31 g ai/ha,98
same,Nightshade plant response rating,nightshade; 62 g ai/ha,100
same,"Plant response rating, Nightshade",nightshade; [1],100
same,Kochia plant response rating,kochia; 31 g ai/ha,40
same,Kochia plant response rating,kochia; 62 g ai/ha,65
same,"Plant response rating, Kochia",kochia; [1],90
same,Beggarticks plant response rating,hairy beggarticks; 16 g ai/ha,0
same,Beggarticks plant response rating,hairy beggarticks; 31 g ai/ha,0
same,Beggarticks plant response rating,hairy beggarticks; 62 g ai/ha,0
same,"Plant response rating, Beggarticks",hairy beggarticks; [1],0
Fc1cccc(Oc2ncc(Cl)cn2)c1-n1cc(I)cn1 [Compound 179],"Plant response rating, Rice",rice; 31 g ai/ha,0
same,"Plant response rating, Rice",rice; 62 g ai/ha,0
same,"Plant response rating, Rice",rice; 125 g ai/ha,10
same,"Plant response rating, Rice",rice; 250 g ai/ha,10
same,"Plant response rating, Sedge, Umbrella","sedge, umbrella; 31 g ai/ha",0
same,"Plant response rating, Sedge, Umbrella","sedge, umbrella; 62 g ai/ha",0
same,"Plant response rating, Sedge, Umbrella","sedge, umbrella; 125 g ai/ha",40
same,"Plant response rating, Sedge, Umbrella","sedge, umbrella; 250 g ai/ha",80
same,"Plant response rating, Velvetleaf",velvetleaf; [2],20
same,Velvetleaf plant response rating,velvetleaf; 62 g ai/ha,100
same,"Plant response rating, Velvetleaf",velvetleaf; [1],100
same,"Plant response rating, Poinsettia, Wild",wild poinsettia; [2],0
same,"Poinsettia, Wild plant response rating",wild poinsettia; 62 g ai/ha,30
same,"Plant response rating, Poinsettia, Wild",wild poinsettia; [1],35
same,"Plant response rating, Crabgrass, Brazil",Brazilian crabgrass; [2],0
same,"Crabgrass, Brazil plant response rating",Brazilian crabgrass; 16 g ai/ha,0
same,"Crabgrass, Brazil plant response rating",Brazilian crabgrass; 62 g ai/ha,65
same,"Plant response rating, Crabgrass, Brazil",Brazilian crabgrass; [1],100
same,"Plant response rating, Johnsongrass",johnsongrass; [2],0
same,Johnsongrass plant response rating,johnsongrass; 62 g ai/ha,20
same,"Plant response rating, Johnsongrass",johnsongrass; [1],25
same,"Plant response rating, Arrowleaf Sida",arrowleaf sida; [2],0
same,Arrowleaf Sida plant response rating,arrowleaf sida; 16 g ai/ha,20
same,Arrowleaf Sida plant response rating,arrowleaf sida; 62 g ai/ha,100
same,"Plant response rating, Arrowleaf Sida",arrowleaf sida; [1],100
same,"Plant response rating, Dayflower, VA",dayflower; [2],0
same,"Dayflower, VA plant response rating",dayflower; 16 g ai/ha,0
same,"Dayflower, VA plant response rating",dayflower; 62 g ai/ha,0
same,"Plant response rating, Dayflower, VA",dayflower; [1],60
same,"Plant response rating, Field Bindweed",field bindweed; [2],0
same,Field Bindweed plant response rating,field bindweed; 16 g ai/ha,0
same,Field Bindweed plant response rating,field bindweed; 62 g ai/ha,0
same,"Plant response rating, Field Bindweed",field bindweed; [1],30
same,"Plant response rating, Nightshade",nightshade; [2],0
same,Nightshade plant response rating,nightshade; 62 g ai/ha,80
same,"Plant response rating, Nightshade",nightshade; [1],95
same,"Plant response rating, Kochia",kochia; [2],0
same,Kochia plant response rating,kochia; 62 g ai/ha,25
same,"Plant response rating, Kochia",kochia; [1],75
same,"Plant response rating, Beggarticks",hairy beggarticks; [2],0
same,Beggarticks plant response rating,hairy beggarticks; 16 g ai/ha,0
same,Beggarticks plant response rating,hairy beggarticks; 62 g ai/ha,0
same,"Plant response rating, Beggarticks",hairy beggarticks; [1],0
"FC(F)c1cccc(Oc2ncc(Cl)cn2)c1-n1cc(Br)cn1 [Compound 194, 2-[2-(4-bromo-1H-pyrazol-1-yl)-3-(difluoromethyl)phenoxy]-5-chloropyrimidine]","Plant response rating, Rice",rice; 31 g ai/ha,10
same,"Plant response rating, Rice",rice; 62 g ai/ha,10
same,"Plant response rating, Rice",rice; 125 g ai/ha,10
same,"Plant response rating, Rice",rice; 250 g ai/ha,10
same,"Plant response rating, Sedge, Umbrella","sedge, umbrella; 31 g ai/ha",50
same,"Plant response rating, Sedge, Umbrella","sedge, umbrella; 62 g ai/ha",75
same,"Plant response rating, Sedge, Umbrella","sedge, umbrella; 125 g ai/ha",85
same,"Plant response rating, Sedge, Umbrella","sedge, umbrella; 250 g ai/ha",95
same,Velvetleaf plant response rating,velvetleaf; 31 g ai/ha,5
same,Velvetleaf plant response rating,velvetleaf; 62 g ai/ha,25
same,"Poinsettia, Wild plant response rating",wild poinsettia; 31 g ai/ha,10
same,"Poinsettia, Wild plant response rating",wild poinsettia; 62 g ai/ha,0
same,"Crabgrass, Brazil plant response rating",Brazilian crabgrass; 31 g ai/ha,65
same,"Crabgrass, Brazil plant response rating",Brazilian crabgrass; 62 g ai/ha,98
same,Johnsongrass plant response rating,johnsongrass; 31 g ai/ha,0
same,Johnsongrass plant response rating,johnsongrass; 62 g ai/ha,50
same,Arrowleaf Sida plant response rating,arrowleaf sida; 31 g ai/ha,35
same,Arrowleaf Sida plant response rating,arrowleaf sida; 62 g ai/ha,100
same,"Dayflower, VA plant response rating",dayflower; 31 g ai/ha,0
same,"Dayflower, VA plant response rating",dayflower; 62 g ai/ha,40
same,Field Bindweed plant response rating,field bindweed; 31 g ai/ha,0
same,Field Bindweed plant response rating,field bindweed; 62 g ai/ha,40
same,Nightshade plant response rating,nightshade; 31 g ai/ha,95
same,Nightshade plant response rating,nightshade; 62 g ai/ha,95
same,Kochia plant response rating,kochia; 31 g ai/ha,5
same,Kochia plant response rating,kochia; 62 g ai/ha,35
same,Beggarticks plant response rating,hairy beggarticks; 31 g ai/ha,0
same,Beggarticks plant response rating,hairy beggarticks; 62 g ai/ha,0

# — patent US9695155B2, “Herbicidal substituted pyrimidinyloxy benzene compounds” (E. I. DU PONT DE NEMOURS AND COMPANY, priority 2013, dated 2017)
